Assay results from ChEMBL document CHEMBL3808308, “Synergistic potentiation of (-)-lomaiviticin A cytotoxicity by the ATR inhibitor VE-821” (Bioorg Med Chem Lett, 2016).
Calls of active or inactive are those of the source. No cut-off for these calls is given here.

Tests used:
[1] = Cytotoxicity against human K562 cells assessed as decrease in cell viability after 48 hrs by cell titer-glo luminescence assay; type: cell-based; settings: read-out: ED50
[2] = test system: K562; experiment: Potentiation of 0.5 nM (-)-lomaiviticin A-induced cytotoxicity against human K562 cells assessed as combination index at 10 uM after 24 hrs by cell titer-glo luminescence assay; type: functional
[3] = test system: K562; experiment: Potentiation of 5 nM (-)-lomaiviticin A-induced cytotoxicity against human K562 cells assessed as combination index at 10 uM after 48 hrs by cell titer-glo luminescence assay; type: functional
[4] = Cytotoxicity against human K562 cells assessed as decrease in cell viability after 24 hrs by cell titer-glo luminescence assay; type: cell-based; settings: read-out: ED50
[5] = test system: K562; experiment: Potentiation of 0.05 nM (-)-lomaiviticin A-induced cytotoxicity against human K562 cells assessed as fraction ratio affected at 10 uM after 48 hrs by cell titer-glo luminescence assay; type: functional
[6] = test system: K562; experiment: Potentiation of 0.25 nM (-)-lomaiviticin A-induced cytotoxicity against human K562 cells assessed as combination index at 10 uM after 48 hrs by cell titer-glo luminescence assay; type: functional
[7] = test system: K562; experiment: Potentiation of 0.25 nM (-)-lomaiviticin A-induced cytotoxicity against human K562 cells assessed as combination index at 10 uM after 24 hrs by cell titer-glo luminescence assay; type: functional
[8] = test system: K562; experiment: Potentiation of 0.05 nM (-)-lomaiviticin A-induced cytotoxicity against human K562 cells assessed as fraction ratio affected at 10 uM after 24 hrs by cell titer-glo luminescence assay; type: functional
[9] = test system: K562; experiment: Potentiation of 0.5 nM (-)-lomaiviticin A-induced cytotoxicity against human K562 cells assessed as fraction ratio affected at 10 uM after 48 hrs by cell titer-glo luminescence assay; type: functional
[10] = test system: K562; experiment: Potentiation of 0.05 nM (-)-lomaiviticin A-induced cytotoxicity against human K562 cells assessed as combination index at 10 uM after 48 hrs by cell titer-glo luminescence assay; type: functional
[11] = test system: K562; experiment: Potentiation of 0.5 nM (-)-lomaiviticin A-induced cytotoxicity against human K562 cells assessed as fraction ratio affected at 10 uM after 24 hrs by cell titer-glo luminescence assay; type: functional
[12] = test system: K562; experiment: Potentiation of 2.5 nM (-)-lomaiviticin A-induced cytotoxicity against human K562 cells assessed as fraction ratio affected at 10 uM after 24 hrs by cell titer-glo luminescence assay; type: functional
[13] = test system: K562; experiment: Potentiation of 0.05 nM (-)-lomaiviticin A-induced cytotoxicity against human K562 cells assessed as combination index at 10 uM after 24 hrs by cell titer-glo luminescence assay; type: functional
[14] = test system: K562; experiment: Induction of apoptosis in human K562 cells assessed as gammaH2AX/53BP1 levels at 10 uM after 48 hrs by DAPI staining based immunofluorescence microscopy; type: cell-based; settings: k562, 48 h
[15] = test system: K562; experiment: Potentiation of 50 pM (-)-lomaiviticin A-induced cytotoxicity against human K562 cells assessed as decrease in cell viability at 10 uM after 24 hrs by cell titer-glo luminescence assay; type: functional
[16] = test system: K562; experiment: Potentiation of 5 nM (-)-lomaiviticin A-induced cytotoxicity against human K562 cells assessed as fraction ratio affected at 10 uM after 24 hrs by cell titer-glo luminescence assay; type: functional
[17] = test system: K562; experiment: Potentiation of 5 nM (-)-lomaiviticin A-induced cytotoxicity against human K562 cells assessed as fraction ratio affected at 10 uM after 48 hrs by cell titer-glo luminescence assay; type: functional
[18] = test system: K562; experiment: Potentiation of 2.5 nM (-)-lomaiviticin A-induced cytotoxicity against human K562 cells assessed as fraction ratio affected at 10 uM after 48 hrs by cell titer-glo luminescence assay; type: functional
[19] = test system: K562; experiment: Induction of apoptosis in human K562 cells assessed as gammaH2AX/53BP1 levels at 10 uM after 48 hrs by DAPI staining based immunofluorescence microscopy in presence of 25 to 250 pM (-)-lomaiviticin A; type: functional, cell-based
[20] = test system: K562; experiment: Potentiation of 50 pM (-)-lomaiviticin A-induced cytotoxicity against human K562 cells assessed as decrease in cell viability at 10 uM after 48 hrs by cell titer-glo luminescence assay; type: functional
[21] = test system: K562; experiment: Potentiation of 0.025 nM (-)-lomaiviticin A-induced cytotoxicity against human K562 cells assessed as fraction ratio affected at 10 uM after 48 hrs by cell titer-glo luminescence assay; type: functional
[22] = test system: K562; experiment: Potentiation of 0.025 nM (-)-lomaiviticin A-induced cytotoxicity against human K562 cells assessed as fraction ratio affected at 10 uM after 24 hrs by cell titer-glo luminescence assay; type: functional
[23] = test system: K562; experiment: Potentiation of 2.5 nM (-)-lomaiviticin A-induced cytotoxicity against human K562 cells assessed as combination index at 10 uM after 24 hrs by cell titer-glo luminescence assay; type: functional
[24] = test system: K562; experiment: Induction of DNA double-strand breaks in human K562 cells assessed as median tail moment at 10 uM after 24 hrs by neutral comet assay in presence of 500 pM (-)-lomaiviticin A; type: functional
[25] = test system: K562; experiment: Potentiation of 0.025 nM (-)-lomaiviticin A-induced cytotoxicity against human K562 cells assessed as combination index at 10 uM after 24 hrs by cell titer-glo luminescence assay; type: functional
[26] = test system: K562; experiment: Cytotoxicity against human K562 cells assessed as decrease in cell viability up to 2.5 to 10 uM after 24 to 48 hrs by cell titer-glo luminescence assay; type: cell-based
[27] = test system: K562; experiment: Potentiation of 500 pM (-)-lomaiviticin A-induced cytotoxicity against human K562 cells assessed as decrease in cell viability at 10 uM after 48 hrs by cell titer-glo luminescence assay; type: functional
[28] = test system: K562; experiment: Potentiation of 0.5 nM (-)-lomaiviticin A-induced cytotoxicity against human K562 cells assessed as combination index at 10 uM after 48 hrs by cell titer-glo luminescence assay; type: functional
[29] = test system: K562; experiment: Cytotoxicity against human K562 cells assessed as decrease in cell viability up to 10 uM after 24 to 48 hrs by cell titer-glo luminescence assay; type: cell-based
[30] = test system: K562; experiment: Potentiation of 0.25 nM (-)-lomaiviticin A-induced cytotoxicity against human K562 cells assessed as fraction ratio affected at 10 uM after 24 hrs by cell titer-glo luminescence assay; type: functional
[31] = test system: K562; experiment: Induction of DNA double-strand breaks in human K562 cells after 24 hrs by neutral comet assay in presence of (-)-lomaiviticin A; type: functional, cell-based
[32] = test system: K562; experiment: Potentiation of 2.5 nM (-)-lomaiviticin A-induced cytotoxicity against human K562 cells assessed as combination index at 10 uM after 48 hrs by cell titer-glo luminescence assay; type: functional
[33] = test system: K562; experiment: Potentiation of 0.025 nM (-)-lomaiviticin A-induced cytotoxicity against human K562 cells assessed as combination index at 10 uM after 48 hrs by cell titer-glo luminescence assay; type: functional
[34] = test system: K562; experiment: Potentiation of 0.25 nM (-)-lomaiviticin A-induced cytotoxicity against human K562 cells assessed as fraction ratio affected at 10 uM after 48 hrs by cell titer-glo luminescence assay; type: functional
[35] = test system: K562; experiment: Potentiation of 5 nM (-)-lomaiviticin A-induced cytotoxicity against human K562 cells assessed as combination index at 10 uM after 24 hrs by cell titer-glo luminescence assay; type: functional

SMILES: CS(=O)(=O)c1ccc(-c2cnc(N)c(C(=O)Nc3ccccc3)n2)cc1
- CC50 at 48 h [1]: 71 µM
- CI [2]: 0.09717
- CI [3]: 1.029
- CC50 at 24 h [4]: 449 µM
- Ratio [5]: 0.6017
- CI [6]: 0.1058
- CI [7]: 0.06881
- Ratio [8]: 0.1819
- Ratio [9]: 0.961
- CI [10]: 0.1328
- Ratio [11]: 0.814
- Ratio [12]: 0.8772
- CI [13]: 0.0774
- Activity [14]: Non-toxic
- Activity [15]: 18%
- Ratio [16]: 0.9357
- Ratio [17]: 0.9837
- Ratio [18]: 0.966
- Activity [19]: Active
- Activity [20]: 40%
- Ratio [21]: 0.3737
- Ratio [22]: 0.08806
- CI [23]: 0.4019
- Activity [24]: 34
- CI [25]: 0.1138
- Activity [26]: Non-toxic
- Activity [27]: 96%
- CI [28]: 0.1448
- Activity [29]: < 13%
- Ratio [30]: 0.6516
- Activity [31]: Dose-dependent effect
- CI [32]: 0.6223
- CI [33]: 0.2066
- Ratio [34]: 0.9206
- CI [35]: 0.6748
